Reference: patent publication US20180312473A1, “PHENAZINE DERIVATIVES AS ANTIMICROBIAL AGENTS” (priority 2015, published 2018)
Values joined by “and” are separate entries in the source; they are usually repeats but may differ in a detail not shown here. Equal entries are not always repeated.

How the values were obtained:
[1] = system: Staphylococcus aureus and S. epidermidis; conditions: cited from earlier work
[2] = Spectrophotometric determination of dissociation constants (pKa); format: physicochemical; conditions: UV-vis at varying pH, 1:1 water:methanol buffers
Protocol: Dissociation constants (pKa) for select analogues were determined by implementing UV-vis spectroscopy at varying pH values. Buffers were prepared using potassium phosphate monobasic (KH2PO4) and sodium phosphate dibasic (Na2HPO4) in a 1:1 solution of water:methanol to achieve a pH range of 3.78 to 10.94. Compounds were added from 10 mM stock solutions in dimethyl sulfoxide (12.5 μL) to 987.5 μL of each buffer to yield a final compound concentration of 125 μM. Full spectral scans were performed for each evaluated analogue at pH 3.78 and pH 10.94 from 300 to 800 nm to determine λmax values for the protonated phenol (HA; e.g., HP 2 below) and the deprotonated phenolate species (A^−; e.g., conjugate base of HP 2 below). The change in absorption at each determined λmax in relation to pH was then monitored in each buffer and then plotted as absorbance versus pH for each species. The pKa was first estimated by determining the pH of the point of intersection of the two linear curves as shown. The visual estimation was confirmed by plotting pH versus log [A^−/HA]. The resulting plot yielded a linear regression line with a Y-intercept corresponding to a calculated pKa value.

In the case of `Oc1cccc2nc3ccccc3nc12` [1-hydroxyphenazine], the “activity against staphylococcal pathogens” value ([1]; earlier report) is listed as “inactive”.
With `O=[N+]([O-])c1ccc(O)cc1` [4-nitrophenol, reference compound] the pKa [2] was 7.62.
For `Oc1c(Br)ccc2nc3ccccc3nc12` [Compound 1, 2-bromo-1-hydroxyphenazine], the “MIC against S. aureus and S. epidermidis” value ([1]; earlier report of the group) is listed as 6.25 μM and 1.7 μg/mL.
